Converted amounts (≈) assume the structure as drawn.
Legend:
[1] = Microsomal stability in rat liver microsomes assessed as compound remaining measured after 30 mins; type: ADME, Microsome; conditions: read-out: Stability
Relaxin receptor 1 [2] = target: T1, Relaxin receptor 1 (Rattus norvegicus, UniProt Q6R6I6); assay: Agonist activity at rat RXFP1 stably expressed in HEK293 cells assessed as intracellular cAMP accumulation incubated for 30 mins by HTRF assay; type: cell-based
T1 sequence (Q6R6I6 whole entry): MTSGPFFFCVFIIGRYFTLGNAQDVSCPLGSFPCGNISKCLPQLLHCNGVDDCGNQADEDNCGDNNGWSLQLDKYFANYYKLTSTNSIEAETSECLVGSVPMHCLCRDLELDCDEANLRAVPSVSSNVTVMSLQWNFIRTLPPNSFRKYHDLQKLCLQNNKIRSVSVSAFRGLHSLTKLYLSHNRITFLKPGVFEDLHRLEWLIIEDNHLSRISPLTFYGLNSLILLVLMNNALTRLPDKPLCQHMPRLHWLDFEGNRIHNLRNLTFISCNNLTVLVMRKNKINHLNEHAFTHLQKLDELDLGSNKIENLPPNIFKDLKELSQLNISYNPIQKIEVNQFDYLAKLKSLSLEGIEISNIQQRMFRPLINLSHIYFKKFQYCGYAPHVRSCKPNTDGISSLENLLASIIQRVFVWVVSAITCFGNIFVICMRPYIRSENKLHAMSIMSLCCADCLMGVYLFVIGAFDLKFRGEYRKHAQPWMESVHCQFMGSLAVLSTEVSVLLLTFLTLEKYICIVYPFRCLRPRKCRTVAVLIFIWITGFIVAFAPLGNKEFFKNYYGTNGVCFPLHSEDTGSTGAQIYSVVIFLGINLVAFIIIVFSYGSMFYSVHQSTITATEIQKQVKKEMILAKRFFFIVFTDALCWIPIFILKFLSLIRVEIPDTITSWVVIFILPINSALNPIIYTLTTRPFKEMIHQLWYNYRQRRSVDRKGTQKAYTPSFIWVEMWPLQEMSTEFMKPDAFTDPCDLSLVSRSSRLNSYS

[3] = Thermodynamic aqueous solubility of compound in phosphate buffer at pH 7.4 by reversed-phase ultrahigh pressure liquid chromatography; type: physicochemical; conditions: phosphate buffer, read-out: Therm_solubility
Relaxin receptor 1 [4] = target: T2, Relaxin receptor 1 (Mus musculus, UniProt Q6R6I7); assay: Agonist activity at mouse RXFP1 stably expressed in HEK293 cells assessed as intracellular cAMP accumulation incubated for 30 mins by HTRF assay; type: functional, cell-based
T2 sequence (Q6R6I7 whole entry): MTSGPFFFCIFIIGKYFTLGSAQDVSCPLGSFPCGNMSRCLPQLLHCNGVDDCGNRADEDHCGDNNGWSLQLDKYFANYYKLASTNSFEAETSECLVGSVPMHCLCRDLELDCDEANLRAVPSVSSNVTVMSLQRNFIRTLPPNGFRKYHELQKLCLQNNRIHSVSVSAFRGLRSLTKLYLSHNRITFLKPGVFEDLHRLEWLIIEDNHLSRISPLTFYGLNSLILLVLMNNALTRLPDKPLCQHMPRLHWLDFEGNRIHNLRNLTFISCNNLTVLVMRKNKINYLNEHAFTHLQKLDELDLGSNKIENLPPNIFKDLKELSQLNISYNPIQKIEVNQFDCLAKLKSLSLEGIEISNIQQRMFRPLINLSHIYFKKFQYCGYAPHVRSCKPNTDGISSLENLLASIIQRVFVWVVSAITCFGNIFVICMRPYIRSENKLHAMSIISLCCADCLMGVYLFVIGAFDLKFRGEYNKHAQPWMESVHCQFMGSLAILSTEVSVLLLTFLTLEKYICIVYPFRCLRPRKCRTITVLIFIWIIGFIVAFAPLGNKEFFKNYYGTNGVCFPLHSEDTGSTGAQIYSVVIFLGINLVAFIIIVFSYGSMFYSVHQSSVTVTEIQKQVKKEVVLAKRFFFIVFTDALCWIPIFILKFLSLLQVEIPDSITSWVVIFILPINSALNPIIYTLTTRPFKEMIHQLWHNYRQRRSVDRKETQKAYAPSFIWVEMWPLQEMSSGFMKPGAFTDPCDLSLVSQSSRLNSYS

[5] = Microsomal stability in mouse liver microsomes assessed as compound remaining measured after 30 mins; type: ADME, Microsome; conditions: read-out: Stability
[6] = Microsomal stability in human liver microsomes assessed as compound remaining measured after 30 mins; type: ADME, Microsome; conditions: read-out: Stability
Relaxin receptor 1 [7] = target: T2, Relaxin receptor 1; assay: Partial agonist activity at mouse RXFP1 expressed in HEK293 cells assessed as intracellular cAMP accumulation incubated for 30 mins by HTRF assay; type: functional, cell-based
Relaxin receptor 1 [8] = target: T3, Relaxin receptor 1 (Homo sapiens, UniProt Q9HBX9); assay: Agonist activity at human RXFP1
T3 sequence (Q9HBX9 whole entry): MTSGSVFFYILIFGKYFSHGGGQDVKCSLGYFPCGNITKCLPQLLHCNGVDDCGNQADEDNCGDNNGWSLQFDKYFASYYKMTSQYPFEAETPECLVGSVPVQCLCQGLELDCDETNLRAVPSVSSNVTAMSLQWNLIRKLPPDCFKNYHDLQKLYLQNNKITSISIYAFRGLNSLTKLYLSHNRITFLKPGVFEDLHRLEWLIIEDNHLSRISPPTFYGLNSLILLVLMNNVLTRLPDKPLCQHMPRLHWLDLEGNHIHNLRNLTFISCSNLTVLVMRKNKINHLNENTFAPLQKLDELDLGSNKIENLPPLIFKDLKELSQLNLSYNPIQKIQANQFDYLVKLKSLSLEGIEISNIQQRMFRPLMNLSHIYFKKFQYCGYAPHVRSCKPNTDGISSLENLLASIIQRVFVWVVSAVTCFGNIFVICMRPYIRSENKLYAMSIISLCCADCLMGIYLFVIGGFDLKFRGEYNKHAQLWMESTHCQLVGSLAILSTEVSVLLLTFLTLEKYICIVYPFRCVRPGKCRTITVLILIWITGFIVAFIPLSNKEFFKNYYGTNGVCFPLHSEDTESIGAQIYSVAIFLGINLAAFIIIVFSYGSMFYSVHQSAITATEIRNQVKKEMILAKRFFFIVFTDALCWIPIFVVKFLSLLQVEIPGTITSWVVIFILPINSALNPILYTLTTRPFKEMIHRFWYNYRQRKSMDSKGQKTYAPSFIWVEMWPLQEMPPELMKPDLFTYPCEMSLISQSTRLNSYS

[9] = Oral bioavailability in CD-1 mouse at 10 mg/kg; type: ADME, organism-based; conditions: in vivo
Rattus norvegicus [10] = assay: Chronotropic effect in iv dosed isoflurane-anesthetized male naive Sprague-Dawley rat model assessed as increase in heart rate measured after 60 mins; type: functional, organism-based; conditions: dose lower […], dose upper 5.0 mg/kg/min
Rattus norvegicus [11] = assay: Chronotropic effect in isoflurane-anesthetized male naive Sprague-Dawley rat model assessed as effect on heart rate at 0.5 mg/kg/min, iv measured after 60 mins; type: functional, organism-based

Structure (SMILES)	remaining at 0.5 h [1] [%]	EC50 (Relaxin receptor 1 [4]) [nM]	remaining at 0.5 h [5] [%]	remaining at 0.5 h [6] [%]	EC50 (Relaxin receptor 1 [7]) [nM]	bioavailability [9] [%]	other results
COc1ccc(-c2cc(C(=O)O)ccc2F)cc1C(=O)N[C@H]1[C@@H](C(=O)Nc2ccc(F)c(C(F)(F)F)c2)[C@H]2CC[C@@H]1/C2=C\c1cnoc1	> 90	580	> 90	> 90	580		EC50 (Relaxin receptor 1 [2]): 880 nM; solubility thermodynamic [3]: 15 µg/mL (≈ 22.5 µM)
COc1cc(F)c(F)cc1C(=O)Nc1ccccc1C(=O)Nc1ccc(F)c(C(F)(F)F)c1							EC50 (Relaxin receptor 1 [8]): 1200 nM
COc1ccc(-c2cc(C(=O)O)ccc2F)cc1C(=O)N[C@H]1[C@@H](C(=O)Nc2ccc(F)c(C(F)(F)F)c2)[C@H]2CC[C@@H]1/C2=C\C(F)(F)F	> 90	500	> 90	> 90	500	36	
COc1ccc(-c2cncn2C)cc1C(=O)N[C@H]1[C@@H](C(=O)Nc2ccc(F)c(C(F)(F)F)c2)[C@H]2CC[C@@H]1C2=C(C)C		> 10000				29	
CNC(=O)OC(C(=O)O)c1ccc(F)c(-c2ccc(OC)c(C(=O)N[C@H]3[C@@H](C(=O)Nc4ccc(F)c(C(F)(F)F)c4)[C@H]4CC[C@@H]3/C4=C\C3CC3)c2)c1 (stereo in doubt; 39)							Activity (Rattus norvegicus [10]): Dose-dependent-effect; Activity (Rattus norvegicus [11]): No effect

From ChEMBL document CHEMBL6182920, “The Discovery of C7-Substituted Norbornyl Bisamides as RXFP1 Small Molecule Agonists” (J Med Chem, 2025)
